Test results from PubChem BioAssay AID248 (DTP/NCI, 2004).
Several values for one entry are separate records, joined by “and”; a condition that tells them apart may be missing. Equal values may be shown once. Inconclusive results and toxic doses are left out.

System: L1210 leukemia ip in BDF1 mice, survival T/C
Test: NCI In Vivo Anticancer Drug Screen. Data for tumor model L1210 Leukemia (intraperitoneal) in B6D2F1 (BDF1) mice
Settings: endpoint: mean survival time, higher = longer survival
In short: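 Read-out is survival time, reported as the treated-group measurement over the vehicle-control measurement.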

[1] = dose: 100.0 mg/kg/injection, schedule: Q01DX001 (ip), vehicle: saline
[2] = dose: 200.0 mg/kg/injection, schedule: Q01DX001 (ip), vehicle: saline
[3] = dose: 400.0 mg/kg/injection, schedule: Q01DX001 (ip), vehicle: saline
[4] = dose: 400.0 mg/kg/injection, schedule: Q01DX001 (ip), vehicle: carboxymethylcellulose (CMC)
[5] = dose: 100.0 mg/kg/injection, schedule: Q01DX009 (ip), vehicle: Klucel (hydroxypropylcellulose) (HPC)
[6] = dose: 200.0 mg/kg/injection, schedule: Q01DX009 (ip), vehicle: Klucel (hydroxypropylcellulose) (HPC)
[7] = dose: 400.0 mg/kg/injection, schedule: Q01DX009 (ip), vehicle: Klucel (hydroxypropylcellulose) (HPC)
[8] = dose: 100.0 mg/kg/injection, schedule: Q04DX003 (ip), vehicle: Klucel (hydroxypropylcellulose) (HPC)
[9] = dose: 200.0 mg/kg/injection, schedule: Q04DX003 (ip), vehicle: Klucel (hydroxypropylcellulose) (HPC)
[10] = dose: 400.0 mg/kg/injection, schedule: Q04DX003 (ip), vehicle: Klucel (hydroxypropylcellulose) (HPC)
[11] = dose: 100.0 mg/kg/injection, schedule: Q04DX002 (ip), vehicle: Klucel (hydroxypropylcellulose) (HPC)
[12] = dose: 200.0 mg/kg/injection, schedule: Q04DX002 (ip), vehicle: Klucel (hydroxypropylcellulose) (HPC)
[13] = dose: 400.0 mg/kg/injection, schedule: Q04DX002 (ip), vehicle: Klucel (hydroxypropylcellulose) (HPC)
[14] = dose: 100.0 mg/kg/injection, schedule: Q04DX003 (ip), vehicle: saline with Tween-80
[15] = dose: 200.0 mg/kg/injection, schedule: Q04DX003 (ip), vehicle: saline with Tween-80
[16] = dose: 400.0 mg/kg/injection, schedule: Q04DX003 (ip), vehicle: saline with Tween-80
[17] = dose: 100.0 mg/kg/injection, schedule: Q04DX003 (ip), vehicle: saline
[18] = dose: 200.0 mg/kg/injection, schedule: Q04DX003 (ip), vehicle: saline
[19] = dose: 400.0 mg/kg/injection, schedule: Q04DX003 (ip), vehicle: saline

Cc1ccc(-n2c(=O)c(N=Nc3ccccc3C)c(O)n(-c3ccccc3C)c2=S)cc1
T/C (dose: 37.5 mg/kg/injection, schedule: Q01DX001 (ip), vehicle: Klucel (hydroxypropylcellulose) (HPC)): 95 % of control
T/C (dose: 75.0 mg/kg/injection, schedule: Q01DX001 (ip), vehicle: Klucel (hydroxypropylcellulose) (HPC)): 103 % of control
T/C (dose: 150.0 mg/kg/injection, schedule: Q01DX001 (ip), vehicle: Klucel (hydroxypropylcellulose) (HPC)): 100 % of control

CCCCCCc1cc(N=Nc2ccc(S(N)(=O)=O)cc2)c(O)cc1O
T/C [1]: 97 % of control
T/C [2]: 102 % of control
T/C [3]: 96 % of control

COC(=O)Cc1c(C(=O)OC)c(O)cc(O)c1C(=O)OC
T/C (dose: 50.0 mg/kg/injection, schedule: Q01DX001 (ip), vehicle: carboxymethylcellulose (CMC)): 100 % of control
T/C (dose: 100.0 mg/kg/injection, schedule: Q01DX001 (ip), vehicle: carboxymethylcellulose (CMC)): 97 % of control
T/C (dose: 200.0 mg/kg/injection, schedule: Q01DX001 (ip), vehicle: carboxymethylcellulose (CMC)): 100 % of control
T/C [4]: 100 % of control

CCOc1ccc(N=Nc2c(O)n(-c3ccccc3C)c(=S)n(-c3ccccc3OC)c2=O)cc1
T/C (dose: 75.0 mg/kg/injection, schedule: Q01DX003 (ip), vehicle: Klucel (hydroxypropylcellulose) (HPC)): 91 % of control
T/C (dose: 150.0 mg/kg/injection, schedule: Q01DX003 (ip), vehicle: Klucel (hydroxypropylcellulose) (HPC)): 94 % of control
T/C (dose: 300.0 mg/kg/injection, schedule: Q01DX003 (ip), vehicle: Klucel (hydroxypropylcellulose) (HPC)): 91 % of control

N#CSCCC(c1ccccc1)(c1ccccc1)c1ccccc1
T/C (dose: 50.0 mg/kg/injection, schedule: Q01DX009 (ip), vehicle: saline with Tween-80): 90 % of control
T/C (dose: 100.0 mg/kg/injection, schedule: Q01DX009 (ip), vehicle: saline with Tween-80): 90 % of control
T/C (dose: 200.0 mg/kg/injection, schedule: Q01DX009 (ip), vehicle: saline with Tween-80): 90 % of control

CC(C)(C)C12OC1C(=O)C1(C(C)(C)C)OC1C2=O (centres undefined)
T/C [5]: 97 % of control
T/C [6]: 103 % of control
T/C [7]: 105 % of control

Oc1ccccc1C1SCSCS1
T/C [8]: 97 % of control
T/C [9]: 98 % of control
T/C [10]: 103 % of control

O=C1NC(=O)C(c2ccccc2Cl)N1 (centres undefined)
T/C (dose: 100.0 mg/kg/injection, schedule: Q01DX001 (ip), vehicle: Klucel (hydroxypropylcellulose) (HPC)): 109 % of control
T/C [8]: 102 % of control
T/C (dose: 200.0 mg/kg/injection, schedule: Q01DX001 (ip), vehicle: Klucel (hydroxypropylcellulose) (HPC)): 118 % of control
T/C [9]: 100 % of control
T/C (dose: 400.0 mg/kg/injection, schedule: Q01DX001 (ip), vehicle: Klucel (hydroxypropylcellulose) (HPC)): 103 % of control
T/C [10]: 98 % of control

Cc1ccc(NC(=O)N(CCCl)N=O)cc1NC(=O)c1ccccc1
T/C (dose: 0.22 mg/kg/injection, schedule: Q01DX009 (ip), vehicle: carboxymethylcellulose (CMC)): 103 % of control
T/C (dose: 0.45 mg/kg/injection, schedule: Q01DX009 (ip), vehicle: carboxymethylcellulose (CMC)): 103 % of control
T/C (dose: 1.8 mg/kg/injection, schedule: Q01DX009 (ip), vehicle: carboxymethylcellulose (CMC)): 180 % of control
T/C (dose: 2.6 mg/kg/injection, schedule: Q01DX009 (ip), vehicle: carboxymethylcellulose (CMC)): 175 % of control
T/C (dose: 3.0 mg/kg/injection, schedule: Q01DX009 (ip), vehicle: carboxymethylcellulose (CMC)): 164 % of control
T/C (dose: 4.0 mg/kg/injection, schedule: Q01DX009 (ip), vehicle: carboxymethylcellulose (CMC)): 151 % of control
T/C (dose: 6.6 mg/kg/injection, schedule: Q01DX009 (ip), vehicle: carboxymethylcellulose (CMC)): 179 % of control
T/C (dose: 10.0 mg/kg/injection, schedule: Q01DX009 (ip), vehicle: carboxymethylcellulose (CMC)): 194 % of control
T/C (dose: 15.0 mg/kg/injection, schedule: Q01DX009 (ip), vehicle: carboxymethylcellulose (CMC)): 183 % of control
T/C (dose: 23.0 mg/kg/injection, schedule: Q01DX009 (ip), vehicle: carboxymethylcellulose (CMC)): 243 % of control
T/C (dose: 34.0 mg/kg/injection, schedule: Q01DX009 (ip), vehicle: carboxymethylcellulose (CMC)): 186 % of control
T/C (dose: 52.0 mg/kg/injection, schedule: Q01DX009 (ip), vehicle: carboxymethylcellulose (CMC)): 178 % of control
T/C (dose: 78.0 mg/kg/injection, schedule: Q01DX001 (ip), vehicle: Klucel (hydroxypropylcellulose) (HPC)): 155 % of control
T/C (dose: 78.0 mg/kg/injection, schedule: Q01DX009 (ip), vehicle: carboxymethylcellulose (CMC)): 205 % of control
T/C (dose: 118.0 mg/kg/injection, schedule: Q01DX001 (ip), vehicle: Klucel (hydroxypropylcellulose) (HPC)): 159 % of control
T/C (dose: 177.0 mg/kg/injection, schedule: Q01DX001 (ip), vehicle: Klucel (hydroxypropylcellulose) (HPC)): 213 % of control
T/C (dose: 266.0 mg/kg/injection, schedule: Q01DX001 (ip), vehicle: carboxymethylcellulose (CMC)): 154 % of control
T/C (dose: 266.0 mg/kg/injection, schedule: Q01DX009 (ip), vehicle: carboxymethylcellulose (CMC)): 105 % of control
T/C [4]: 150 % of control and 168 % of control
T/C (dose: 400.0 mg/kg/injection, schedule: Q01DX009 (ip), vehicle: carboxymethylcellulose (CMC)): 98 % of control
T/C (dose: 600.0 mg/kg/injection, schedule: Q01DX001 (ip), vehicle: carboxymethylcellulose (CMC)): 165 % of control

NC(=O)CCC(NC(=O)OCc1ccccc1)C(=O)O (centres undefined)
T/C [5]: 91 % of control
T/C [11]: 97 % of control
T/C [6]: 112 % of control
T/C [12]: 97 % of control
T/C [7]: 109 % of control
T/C [13]: 105 % of control

O=C1NOCC1N=Cc1ccccc1O (centres undefined)
T/C [8]: 102 % of control
T/C [9]: 98 % of control
T/C [10]: 101 % of control

CCOC(=O)NS(=O)(=O)c1ccccc1
T/C [5]: 100 % of control
T/C [6]: 101 % of control
T/C [7]: 87 % of control

N#C/C(=C\c1c(Cl)cccc1Cl)c1ccc([N+](=O)[O-])cc1
T/C [14]: 106 % of control
T/C [15]: 95 % of control
T/C [16]: 92 % of control

CCN1C(=O)CC2CCCC1C2 (centres undefined)
T/C [1]: 90 % of control

C/C(CCC(=O)OC(C)(C)C)=N\N(C)C
T/C [17]: 93 % of control
T/C [18]: 91 % of control
T/C [19]: 111 % of control

O=C1OC(CO)C(O)C1O (centres undefined)
T/C [1]: 101 % of control
T/C [2]: 95 % of control
T/C [3]: 91 % of control

CC(=O)Nc1ccc[n+](C)c1
T/C [17]: 108 % of control
T/C [18]: 105 % of control
T/C [19]: 100 % of control

COC1OC2COC(c3ccccc3)OC2C(NC(C)=O)C1OC(C)=O (centres undefined)
T/C [17]: 98 % of control
T/C [18]: 97 % of control
T/C [19]: 101 % of control

CCOC(=O)C(C(=O)Nc1ccccc1)=S(C)C
T/C [11]: 94 % of control
T/C [12]: 106 % of control
T/C [13]: 116 % of control

COc1cccc(CCCC(=O)O)c1OC
T/C (dose: 100.0 mg/kg/injection, schedule: Q04DX003 (ip), vehicle: gum acacia): 99 % of control
T/C (dose: 200.0 mg/kg/injection, schedule: Q04DX003 (ip), vehicle: gum acacia): 94 % of control
T/C (dose: 400.0 mg/kg/injection, schedule: Q04DX003 (ip), vehicle: gum acacia): 96 % of control

Clc1[nH]cnc1Br
T/C [14]: 107 % of control
T/C [15]: 93 % of control
T/C [16]: 104 % of control

Cc1cccc(NC(=O)c2cccc([N+](=O)[O-])c2C(=O)O)c1C
T/C [11]: 103 % of control
T/C [12]: 103 % of control
T/C [13]: 103 % of control

OCC(Cc1ccccc1)N1CCCCC1 (centres undefined)
T/C (dose: 5.0 mg/kg/injection, schedule: Q01DX001 (ip), vehicle: saline): 109 % of control
T/C (dose: 10.0 mg/kg/injection, schedule: Q01DX001 (ip), vehicle: saline): 96 % of control
T/C (dose: 20.0 mg/kg/injection, schedule: Q01DX001 (ip), vehicle: saline): 96 % of control
T/C (dose: 40.0 mg/kg/injection, schedule: Q01DX001 (ip), vehicle: saline): 96 % of control
T/C (dose: 80.0 mg/kg/injection, schedule: Q01DX001 (ip), vehicle: saline): 96 % of control
